Like-named read-outs stand apart in the source and are kept apart here. Peptide text beside a SMILES is read from it. * marks the point of attachment. Cbz = O=C(OCc1ccccc1)*; CH2F = FC*
Legend:
human iPSC [1] = assay: mThy1 gene targeting in hiPSC with chemical inhibitors added after nucleofection (flow cytometry); format: cell-based; settings: for mThy1 gene targeting efficiencies: PGP1 hiPSC, administered after plasmid nucleofection, indicated concentrations (FIG. 9D)
Method: FIGS. 9A-G. Effects of chemical and genetic inhibitors on mThy1 gene targeting in hiPSC. FIG. 9A. Mouse Thy1 gene targeting scheme. Human iPSC were nucleofected with the mThy1 targeting vector system plasmids and analyzed by flow cytometry five days later. The percentages of mThy1^+hThy1^−, mThy1^+hThy1^+, and mThy1^−hThy1^− cells for each sample (gated on live single cells) are graphed. Lines mark the percentage values for the control sample. FIGS. 9B-9D. Human iPSC were nucleofected with: 2 μg mThy1 targeting vector; 0.5 μg Cas9 plasmid; and 1.5 μg of sgRNA plasmids. The sample was divided into multiple wells and cultured in plain media (mTeSR1+10 μM Y-27632 ROCK inhibitor) supplemented with the indicated chemical inhibitor for three days. 20 μM pifithrin α, 200 μM peptide V5 (VPMLK, SEQ ID NO:31), 200 μM peptide control (IPMIK, SEQ ID NO:32), 50 μM TEMPOL, or the indicated concentrations of SCR7 or L755507 were used. FIG. 9B, mThy1^+hThy1^− (bottom portion of each bar in each graph), mThy1^+hThy1^+ (top portion of each bar in each graph). FIG. 9C, mThy1^+hThy1^− (bottom portion of each bar in each graph), mThy1^+hThy1^+ (top portion of each bar in left and center graphs, middle portion of each bar in right graph), and mThy1^−hThy1^− (top portion of each bar in right graph). FIG. 9D, mThy1^+hThy1^− (bottom portion of each bar in each graph), mThy1^+hThy1^+ (center portion of each bar in each graph), and mThy1^−hThy1^− (top portion of each bar in each graph). FIGS. 9E-9F. Human iPSC were nucleofected with: 2 μg mThy1 targeting vector plasmid; 0.5 μg Cas9 plasmid; 1 μg of sgRNA plasmids; and 0.5 μg of plasmid expressing the indicated DNA repair gene or pUC19 control (“Cas9 only”). For FIG. 9E, cultures were treated with 50 μM zVAD and 10 μM SB203580 post transfection. mThy1^+hThy1^− (bottom portion of each bar in each graph), mThy1^+hThy1^+ (top portion of each bar in left and center graphs, middle portion of each bar in right graph), and mThy1^−hThy1^− (top portion of each bar in right graph). FIG. 9F, mThy1^+hThy1^− (bottom portion of each bar in each graph), mThy1^+hThy1^+ (top portion of each bar in left and center graphs, middle portion of each bar in right graph), and mThy1^−hThy1^− (top portion of each bar in right graph). FIG. 9G. Human iPSC were nucleofected with: 2 μg mThy1 targeting vector plasmid; 0.5 μg Cas9 plasmid; and 1.5 μg of sgRNA plasmids. The indicated viral inhibitor genes were cloned into the Cas9 expression vector following an IRES sequence. Cultures were supplemented with 50 μM zVAD post transfection. mThy1^+hThy1^− (bottom portion of each bar in each graph), mThy1^+hThy1^+ (top portion of each bar in left and center graphs, middle portion of each bar in right graph), and mThy1^−hThy1^− (top portion of each bar in right graph).
FIGS. 10A-F. Effect of Caspase and p38 MAPK inhibitors on survival and gene targeting of human iPSC. FIG. 10A and FIG. 10B. Mouse Thy1 gene targeting scheme. Human iPSC were nucleofected with the mThy1 targeting vector, Cas9 nuclease, and Thy1 sgRNA expressing plasmid or pUC19 empty vector. Nucleofected cells were evenly divided and plated onto plain media (mTeSR1+10 μM Y-27632 ROCK inhibitor), or media supplemented with the indicated chemical inhibitor. For specific caspase inhibitors, the principal caspase they target is noted in parentheses. As observed in previous reports, most of the nuclease-mediated cell death occurred between days 1-2 post transfection, and the proportions of mThy1^+ cells remained stable beyond day 5. FIG. 10C. Two days after nucleofection, viable cells were counted. Error bars indicate s.e.m. of technical duplicates. Lines mark the count levels for nucleofected cells in plain media with or without sgRNA. FIG. 10D. Five days after transfection, cells were analyzed by flow cytometry for mThy1 and hThy1 expression. The percent of mThy1^+hThy1^− (bottom of each bar) and mThy1^+hThy1^+ (top of each bar) cells of live single cells is indicated. […]

human iPSC [2] = format: cell-based; settings: for rescue of hiPSC from cell death (anoikis) after nucleofection: viable cells two days after nucleofection, sgRNA plasmid or pUC19 control
Method: FIGS. 10A-F. Effect of Caspase and p38 MAPK inhibitors on survival and gene targeting of human iPSC. FIG. 10A and FIG. 10B. Mouse Thy1 gene targeting scheme. Human iPSC were nucleofected with the mThy1 targeting vector, Cas9 nuclease, and Thy1 sgRNA expressing plasmid or pUC19 empty vector. Nucleofected cells were evenly divided and plated onto plain media (mTeSR1+10 μM Y-27632 ROCK inhibitor), or media supplemented with the indicated chemical inhibitor. For specific caspase inhibitors, the principal caspase they target is noted in parentheses. […] FIG. 10C. Two days after nucleofection, viable cells were counted. Error bars indicate s.e.m. of technical duplicates. Lines mark the count levels for nucleofected cells in plain media with or without sgRNA. FIG. 10D. Five days after transfection, cells were analyzed by flow cytometry for mThy1 and hThy1 expression. The percent of mThy1^+hThy1^− (bottom of each bar) and mThy1^+hThy1^+ (top of each bar) cells of live single cells is indicated. Lines mark the levels for cells in plain media. […] FIG. 10E. FACS plots of human iPSC transfected with the mThy1 targeting vector, Cas9 nuclease, and Thy1 Left and Right sgRNAs. Cells were subsequently cultured for 5 days in plain media±50 μM zVAD and ±10 μM SB203580. FIG. 10F. Human iPSC cultures were single cell FACS sorted into 96-well tissue culture plates containing a MEF feeder layer and hES media supplemented with SMC4 inhibitors±50 μM zVAD for eight days. Ten days after sorting, the number of surviving iPSC colonies was counted (from 190 cells sorted). PGP1 hiPSC lines created using retroviral vectors or non-integrating methods were both tested.
Pluripotency of iPSC cultures was verified by flow cytometry staining using anti-human Tra-1/60 PE (TRA-1-60, BD) and anti-human Oct3/4 eFluor 660 (EM92, eBioscience) with the fixation buffer sold under the trademark BD CYTOFIX™ and permeabilization buffer sold under the trademark PHOSFLOW™ Perm/Wash buffers. Human g-band karyotype analysis was done by Cell Line Genetics. Viable cell counts were measured with the cell analyzer sold under the trademark MUSE® Count & Viability Assay kit (EMD Millipore). Anti-human HLA-A2 APC (BB7.2) and anti-human HLA-BC PE (B1.23.2) were purchased from eBioscience. Human iPSC cultures were treated with 50 ng/ml recombinant interferon gamma (eBioscience) for 2 days prior to HLA staining.
Plasmids were purified using the plasmid DNA purification kit sold under the trademark Qiagen ENDOFREE® Plasmid Maxi kit and nucleofected into iPSC cells using the Lonza 4D-Nucleofector X unit (Buffer P3, Program CB-150). For each 20 μl nucleofection reaction, 0.2-0.5×106 iPSC were transfected with up to 4 μg of plasmid DNA. Post-nucleofection, iPSC were plated onto solubilized basement membrane matrix secreted by Engelbreth-Holm-Swarm (EHS) mouse sarcoma cells sold under the trademark […]®-coated wells containing feeder-free cell culture medium sold under the trademark MTESR1™ media with 10 μM Y-27632 plus other chemical inhibitors when noted. Later experiments included 50 μM zVAD-fmk (Bachem) for 1 day and 10 μM SB203580 (Biovision) for 4-5 days post transfection (see FIGS. 5, 6, 11, and 12). For FIG. 6 (ssODN transfection), 200 ng/ml recombinant B 18R (eBioscience), was also added to the culture for 5 days post transfection.
The following inhibitors were added to the hiPSC culture at the concentrations and time periods indicated in the Examples below. • 1. p53 or Bax inhibitors: cyclic pifithrin α (StemCell Technologies); pifithrin (Tocris); peptide V5, peptide control, iMAC1 and iMAC2 (EMD Millipore); N-acetyl cysteine and 4-hydroxy TEMPO (TEMPOL) (Sigma). • 2.

[3] = 10 μM SB203580 added to hiPSC media after nucleofection

CCCCCCNC(=O)Nc1ccc(S(=O)(=O)Nc2ccc(CCNC[C@H](O)COc3ccc(O)cc3)cc2)cc1 [L755507]
mThy1 gene targeting efficiencies (human iPSC [1]): neither the DNA ligase IV inhibitor SCR7 (Maruyama et al., 2015) nor the β3-adrenergic receptor agonist L755507 (Yu et al., 2015) improved mThy1 gene targeting efficiencies

Cc1ccc(C(=O)Cn2c3c(sc2=N)CCCC3)cc1 [Pifithrin α]
mThy1 gene targeting in hiPSC (human iPSC [1]; 20 μM pifithrin α in media for three days after nucleofection): did not enhance hiPSC gene targeting

C[S+]([O-])c1ccc(-c2nc(-c3ccncc3)c(-c3ccc(F)cc3)[nH]2)cc1 (stereo not shown) [SB203580]
gene targeting efficiency (human iPSC [1]; [3]): did enhance gene targeting efficiency
cell survival (human iPSC [2]; [3]): did not affect cell survival

O=c1[nH]c(=S)[nH]c(N=Cc2ccccc2)c1N=Cc1ccccc1 [SCR7]
mThy1 gene targeting efficiencies (human iPSC [1]): neither the DNA ligase IV inhibitor SCR7 (Maruyama et al., 2015) nor the β3-adrenergic receptor agonist L755507 (Yu et al., 2015) improved mThy1 gene targeting efficiencies

CC1(C)CC(O)CC(C)(C)N1[O] [TEMPOL, 4-hydroxy TEMPO]
mThy1 gene targeting in hiPSC (human iPSC [1]; 50 μM TEMPOL in media for three days after nucleofection): no effect

COC(=O)CC[C@H](NC(=O)[C@H](C)NC(=O)OCc1ccccc1)C(=O)N[C@H](C(=O)N[C@@H](CC(=O)OC)C(=O)CF)C(C)C [zAEVD-fmk] (Cbz-AE(OMe)VD(OMe)-CH2F)
rescue of hiPSC from cell death (anoikis) after nucleofection (human iPSC [2]): prevented anoikis

COC(=O)CC[C@H](NC(=O)[C@H](CC(=O)OC)NC(=O)OCc1ccccc1)C(=O)N[C@H](C(=O)N[C@@H](CC(=O)OC)C(=O)CF)C(C)C [zDEVD-fmk]
anoikis rescue (human iPSC [2]; lower concentration, 25 μM): did not show as much anoikis rescue
rescue of hiPSC from cell death (anoikis) after nucleofection (human iPSC [2]): prevented anoikis

COC(=O)CC[C@H](NC(=O)[C@H](CC(C)C)NC(=O)OCc1ccccc1)C(=O)N[C@@H](Cc1cnc[nH]1)C(=O)N[C@@H](CC(=O)OC)C(=O)CF [zLEHD-fmk] (Cbz-LE(OMe)HD(OMe)-CH2F)
toxicity to hiPSC (human iPSC [2]; after nucleofection, higher concentration than 25 μM (FIG. 10C)): very toxic
toxicity to hiPSC (human iPSC [2]; lower concentration, 25 μM): did not show as much

COC(=O)C[C@H](NC(=O)[C@H](C)NC(=O)[C@@H](NC(=O)OCc1ccccc1)C(C)C)C(=O)CF [zVAD(OMe)-fmk] (Cbz-Val-Ala-Asp(OMe)-CH2F)
rescue of hiPSC from cell death (anoikis) after nucleofection (human iPSC [2]): rescued cells transfected with an sgRNA, and also those transfected with the pUC19 control

VPMLK (peptide V5)
mThy1 gene targeting in hiPSC (human iPSC [1]; 200 μM peptide V5 in media for three days after nucleofection): only a very slight improvement in gene targeting
